Laboratory results reported in patent US6919424B2, “Binding peptides for carcinoembryonic antigen (CEA)” (Dyax Corp., priority 2000, dated 2005).

Tests used:
NA3 = molecular target: T1, NA3 (Homo sapiens, UniProt P06731); assay: Phage ELISA with varying amounts of NA3 per well (FIGS. 2, 4, 5); assay type: binding; conditions: FIG. 2; 100, 50, 10, 5, 1, 0 ng per well
T1 construct: H6NA3, consisting of a hexahistidine leader and the N and A3 domains of CEA, was used
T1 sequence (P06731 35-144 limits assumed): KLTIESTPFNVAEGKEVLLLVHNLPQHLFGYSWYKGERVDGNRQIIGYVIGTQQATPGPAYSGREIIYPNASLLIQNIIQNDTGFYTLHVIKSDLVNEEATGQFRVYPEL
T1 sequence (P06731 501-588 limits assumed): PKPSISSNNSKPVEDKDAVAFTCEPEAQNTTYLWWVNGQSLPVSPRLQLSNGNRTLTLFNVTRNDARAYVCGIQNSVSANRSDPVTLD
Protocol: The first bar for each sample represents wells each having 100 ng CEA. Successive bars represent 50 ng, 10 ng, 5 ng, 1 ng, and 0 ng CEA per well.
The first bar for each sample represents wells each having 30 ng NA3. Successive bars represent 10 ng, 3 ng, and 0 ng NA3 per well.
Several Isolates gave especially strong ELISA signals and these were tested further.
Several Isolates gave especially strong ELISA signals and these were tested further. […] Isolate 304A-12-H12 (designated DX306) was assayed in parallel as a basis for comparison.

CEA [1] = molecular target: T2, CEA (Homo sapiens, UniProt P06731); assay: Fluorescence anisotropy direct binding to CEA; conditions: compared with binding to NA3
T2 construct: purchased
T2 sequence (P06731 35-676): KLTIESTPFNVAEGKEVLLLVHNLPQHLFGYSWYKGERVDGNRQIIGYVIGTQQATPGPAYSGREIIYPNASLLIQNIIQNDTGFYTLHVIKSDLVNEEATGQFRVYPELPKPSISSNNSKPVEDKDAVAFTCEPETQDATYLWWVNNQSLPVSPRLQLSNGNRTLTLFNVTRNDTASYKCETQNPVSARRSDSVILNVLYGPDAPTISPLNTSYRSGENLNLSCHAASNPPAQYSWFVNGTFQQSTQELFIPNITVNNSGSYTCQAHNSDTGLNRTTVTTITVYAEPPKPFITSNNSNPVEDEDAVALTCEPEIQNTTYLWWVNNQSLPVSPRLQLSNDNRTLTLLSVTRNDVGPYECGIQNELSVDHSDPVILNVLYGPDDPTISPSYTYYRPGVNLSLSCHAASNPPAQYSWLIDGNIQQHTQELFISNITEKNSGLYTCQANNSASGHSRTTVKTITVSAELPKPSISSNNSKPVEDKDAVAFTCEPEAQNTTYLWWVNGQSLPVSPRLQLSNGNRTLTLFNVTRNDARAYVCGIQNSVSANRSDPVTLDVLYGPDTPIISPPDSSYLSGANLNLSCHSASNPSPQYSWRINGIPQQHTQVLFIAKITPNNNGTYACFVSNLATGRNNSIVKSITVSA
Protocol: Dissociation constants were determined using fluorescence anisotropy, through direct binding measurements to either NA-3 or CEA in PBS with 0.01% TWEEN 20. In direct binding assays, the concentration of the fluorescein-labeled peptide is held constant and the concentration of NA3 is varied. In the competition experiment, the concentration of the fluorescein-labeled peptide and the NA3 target are held constant and the concentration of competitor peptide (from Isolate 12-H12) is varied. The change in anisotropy is fit to the appropriate equation via nonlinear regression to obtain the apparent Kd. Isolate 304A-12-H12, previously isolated from Lib2 and assayed for binding, was analyzed in parallel as a control. Replicate analyses were run for certain binders and are reported to confirm accuracy and precision of measurements. KD standard error values are calculated from the nonlinear regression (SIGMAPLOT, SPSS Science, Chicago, Ill.).

H6NA3 = molecular target: T3, H6NA3 (Homo sapiens, UniProt P06731); assay: Fluorescence anisotropy direct binding to H6NA3 / NA3; conditions: from KD of Table 7 versus Table 3
T3 construct: H6NA3, consisting of a hexahistidine leader and the N and A3 domains of CEA, was used
T3 sequence (P06731 35-144 limits assumed): T1 sequence (P06731 35-144 limits assumed)
T3 sequence (P06731 501-588 limits assumed): T1 sequence (P06731 501-588 limits assumed)
Protocol: (§1) Each peptide was also provided with a C-terminal amide-functional linker useful for immobilizing peptides to various chromatographic substrates: -Ala18-Pro19-Gly20-Gly-Glu-Gly-Gly-Gly-Ser-Lys-CONH2 (SEQ ID NO:28). […] Aliquots of each peptide were fluorescently labeled using NHS-fluorescein reacted with the ε-amino side group of the C-terminal lysine.
Dissociation constants were determined using fluorescence anisotropy, through direct binding measurements and competition experiments. In direct binding assays, the concentration of the fluorescein-labeled peptide is held constant and the concentration of H6NA3 is varied. In the competition experiment, the concentration of the fluorescein-labeled peptide and the H6NA3 target are held constant and the concentration of a competitor (cT84.66, unlabeled) is varied. The change in anisotropy is fit to the appropriate equation via nonlinear regression to obtain the apparent Kd.
Aliquots of each peptide were fluorescently labeled using NHS-fluorescein reacted with the ε-amino side group of the C-terminal lysine.
Dissociation constants were determined using fluorescence anisotropy, through direct binding measurements (see Example 6).
as §1, with “Peptides including the binding domain of the CEA binder Isolates were synthesized by solid-phase synthesis. Each” for “Each”
Dissociation constants were determined using fluorescence anisotropy, through direct binding measurements to either NA-3 or CEA in PBS with 0.01% TWEEN 20. […] Isolate 304A-12-H12, previously isolated from Lib2 and assayed for binding, was analyzed in parallel as a control. […] KD standard error values are calculated from the nonlinear regression (SIGMAPLOT, SPSS Science, Chicago, Ill.).

CEA [2] = molecular target: T2, CEA; assay: Later evaluation of CEA binding, method not given

phage ELISA binding profile to varying amounts of NA3 (NA3)	increase in affinity compared to the Isolate G08 peptide (H6NA3) [fold]	binding to CEA with useful affinity (CEA [2])	Compound	binding to CEA (in words) (CEA [1])
do not drop off so quickly	8	–	CC(C)C[C@H](NC(=O)[C@@H](NC(=O)[C@H](CC(N)=O)NC(=O)[C@@H]1CSSC[C@H](NC(=O)[C@@H](NC(=O)[C@H](Cc2c[nH]c3ccccc23)NC(=O)[C@H](CC(=O)O)NC(=O)[C@@H](N)CO)C(C)C)C(=O)N[C@@H](CCC(=O)O)C(=O)N[C@@H](Cc2ccc(O)cc2)C(=O)N[C@@H](Cc2ccccc2)C(=O)N[C@@H](CCCCN)C(=O)N[C@@H](CC(N)=O)C(=O)N[C@@H](CCC(N)=O)C(=O)N[C@@H](Cc2c[nH]c3ccccc23)C(=O)N[C@@H](Cc2ccccc2)C(=O)N1)C(C)C)C(=O)N[C@@H](C)C(=O)N1CCC[C@H]1C(=O)NCC(=O)NCC(=O)N[C@@H](CCC(=O)O)C(=O)NCC(=O)NCC(=O)NCC(=O)N[C@@H](CO)C(=O)N[C@@H](CCCCNC(=O)c1ccc2c(c1)C(=O)OC21c2ccc(O)cc2Oc2cc(O)ccc21)C(N)=O [Isolate 304A-12-H12, DWVCEYFKNQWFCNVL]	effectively bound CEA, but not as strongly as they bound NA3
–	–	not to bind CEA with useful affinity	-RYCEFFPWSLHCGRP (Isolate of TN10/9 library found not to bind CEA) [Isolate B10]	–
–	–	not to bind CEA with useful affinity	NWRCKLFPRYPYCSSW (Isolate of TN10/9 library found not to bind CEA) [Isolate G01]	–
